Patent publication US4912116A, “Propiophenone derivatives for treatment of pollakiuria (frequency urination)” (Hokuriku Pharmaceutical Co., Ltd., priority 1986, dated 1990)
Counter-ions that a name gives are not always drawn.

Experiments:
in vivo = conditions: mouse, oral, mortality for one week, Probit method
Method: Five to ten male ddY mice aged 4-5 weeks were used for each determination.
The test drug (5-8 dose levels) was orally administrated, and the LD50 value was calculated by Probit method from the mortality for one week after administration.

[1] = test system: micturition reflex (rhythmic bladder contractions); test: Inhibition of micturition reflex (rhythmic bladder contractions) in anesthetized rats; assay type: in vivo, male wister rats; conditions: for Disappearance time (of bladder contractions): i.v., 3 rats, mean ± S.E.; for ED (3 min disappearance of contractions): iv, read-out: ED3 (dose at which rhythmic bladder contractions disappeared in three (3) minutes)
Method: (§1) statistical analysis: Each data of Experiment 1-6 represents the mean±S.E. statistical analysis of the data was performed using student's t-test.
According to the method described by Morikawa et al. (Folia phamacol. japon.: 88,355 (1986), male wister rats weighing about 300 g (in case of intraduodenal administration, fasted 18-20 hours) were anesthetized with urethane (500 mg/kg, i.p.) and alpha-chloralose (50 mg/kg, i.p.), and fixed on their back.
Then, through a midline incision of the abdomen, the urinary bladder was exposed, provided with a small incision, and a balloon (capacity about 1 ml) was inserted into the bladder dome.
The balloon was connected to a pressure transducer and variations of inside pressure were recorded on a recorder.
Micturition reflex was elicited by elevating balloon pressure 10-20 cm H2 O.
In case of intravenous administration, the drug was administrated through a cannula inserted into the left jugular vein and, in case of intraduodenum administration, the drug was administrated through a cannula into the duodenum from outside the stomach.
In case of intravenous administration, the drug was evaluated by the dissappearance time of bladder contractions caused by micturition reflex.
In case of intraduodenal administration, the sum total of amplitude of bladder contractions caused by the micturition reflex was calculated during each five minutes at 5 min. before and 15, 30, 45, and 60 min. after the administration.
Then, the maximum inhibition rate was determined from one of the above judgment times compared with that of before the administration, and the dose which inhibited 50 percent of the sum total of amplitude of bladder contractions during five minutes (ED 50 value), was calculated from the graph.

[2] = test system: cystometrogram (time to micturition); test: Effects on the cystometrogram (Dog); assay type: in vivo, Mongrel adult dogs; conditions: i.v., dogs, mean ± S.E., saline 6.0 ± 13.8
Method: as §1
Mongrel adult dogs weighing about 10 kg were anesthetized with thiopental (20 mg/kg, i.v.) and immobilized with gallamine (2 mg/kg, i.v.), and fixed on their back.
In the experiment, infusion of pentobarbital (3 mg/kg/hr, i.v.) and gallamine (3 mg/kg i.v.) were continuted, and artifical respiration was performed (20 times/min, 20 ml air/kg).
After midline incision of the abdomen, the ureters were ligated and polyethylene tubes were inserted into the kidney side and the urinary bladder side. Urine was led out of the body from the kidney side, and warm saline was infused using a continuous infusion pump from the urinary bladder side.
Then, a catheter was inserted into the bladder dome and connected to a pressure transducer. Intravesical pressure was recorded on a recorder.
The infusion rate of saline was changed (6-35 ml/min) so as to induce the time to micturition from the saline infusion (time to micturition) at about five minutes.
The drug was administered (through a cannula inserted into the right femoral vein) at the second minute before the last time to micturition, and the delayed time of micturition was evaluated.

[3] = test system: cystometrogram (time to micturition); test: Effects on the cystometrogram (Cat); assay type: in vivo, Mongrel adult cats; conditions: cats
Method: as §1
Mongrel adult cats weighing about 3 kg (in case of intraduodenal administration, fasted 24 hours) were anesthetized with urethane (500 mg/kg, i.p.) and alpha-chloralose (50 mg/kg, i.p.) and fixed on their back.
After midline incision of the abdomen, the ureters were ligated and polyethylene tubes were inserted into the kidney side and urinary bladder side, urine was led out of the body from the kidney side, and warm saline was infused using a continuous infusion pump from the urinary bladder side.
Then, a catheter was inserted into the bladder dome and connected to a pressure transducer Intravesical pressure was recorded on a recorder.
The infusion rate of saline was changed (0.7-6.6 ml/min) so as to induce the time to micturition from saline infusion at about five minutes.
Each of delayed time of micturition was evaluated. In case of intravenous administration, the drug was administered through a cannula inserted into the right femoral vein at 30 seconds before saline infusion.
In case of intraduodenal administration, the drug was administrated through a tube inserted into the duodenum by way of mouth at the time of saline infusion, and the time to micturition was measured at 15 min. intervals until 90 min.

Structure (SMILES)	LD50 at 168 h (in vivo) [mg/kg]	Disappearance time (of bladder contractions) ([1]; 1 mg/kg) [min]	Disappearance time (of bladder contractions) ([1]; 2 mg/kg) [min]	Disappearance time (of bladder contractions) ([1]; 4 mg/kg) [min]	ED (3 min disappearance of contractions) ([1]; Rattus norvegicus) [mg/kg]	Disappearance time (of bladder contractions) ([1]; 8 mg/kg) [min]	other results
CC(CN1CCCC1)C(=O)c1ccc(C2CCCCC2)cc1 (stereo not shown) [Compound 2]	587	1.0 ± 1.0	2.5 ± 1.3	6.3 ± 0.8	2.2	–	–
CCc1ccc(C(=O)C(C)CN2CCCCC2)cc1 (stereo not shown) [Compound 3]	–	0.4 ± 0.4	5.3 ± 2.6	12.0 ± 1.2	1.4	–	–
Cc1ccc(C(=O)C(C)CN2CCCCC2)cc1 (stereo not shown) [Compound 4]	450	1.0 ± 0.7	2.3 ± 0.5	4.9 ± 1.9	2.4	–	–
COc1ccc(C(=O)C(C)CN2CCCC2)c(C)c1C (stereo not shown) [Compound 5]	–	6.3 ± 1.4	–	–	0.25	–	Disappearance time (of bladder contractions) ([1]; 0.25 mg/kg): 3.0 ± 0.4 min
CN1CCCC1CCC(=O)c1ccc(Cl)cc1 (stereo not shown) [Compound 6]	–	–	1.1 ± 0.3	1.9 ± 0.3	8	3.0 ± 0.3	–
CC(CN1CCOCC1)C(=O)c1cccc(F)c1 (stereo not shown) [Compound 7]	–	–	1.8 ± 1.0	–	2.8	6.8 ± 2.1	–
CC(CN1CCCC1)C(=O)c1ccc(CF)cc1 (stereo not shown) [Compound 8]	–	–	1.5 ± 4.79	2.4 ± 2.0	–	5.2 ± 2.5	–
CC(CN1CCCCCC1)C(=O)c1ccc(F)cc1 (stereo not shown) [Compound 9]	–	0.5 ± 0.1	1.2 ± 0.8	5.5 ± 2.7	2.7	–	–
Cc1c(-c2ccccc2)oc2c(C(=O)OCCN3CCCCC3)cccc2c1=O [flavoxate-HCl, reference compound]	1330	1.1 ± 1.1	–	–	1.4	–	Delayed time of micturition ([2]; 1 mg/kg): 0.6 ± 35.4 s; Delayed time of micturition ([2]; 3 mg/kg, * p < 0.05 vs last time to micturition): 30.6 ± 44.4 s; Delayed time to micturition ([3]; 1 mg/kg, i.v., mean ± S.E., saline 6.6 ± 10.2): 12.0 ± 10.8 s; Delayed time to micturition ([3]; 4 mg/kg, i.v., mean ± S.E., saline 6.6 ± 10.2): 39.0 ± 43.8 s; Delayed time to micturition ([3]; 8 mg/kg, i.v., mean ± S.E., saline 6.6 ± 10.2): -16.8 ± 36.6 s; Delayed time to micturition ([3]; 30.0 mg/kg, i.d., after 30 min., water 22.2 ± 16.2): -45.6 ± 37.8 s; delayed effect on the cystometrogram (in words) ([3]; intravenous and intraduodenal): not recognized to produce delayed effects; Disappearance time (of bladder contractions) ([1]; 3 mg/kg): 7.5 ± 2.7 min; ED50 ([1]; Rattus norvegicus, intraduodenal administration, read-out: ED50 (dose which inhibited 50 percent of the sum total of amplitude of bladder contractions during five minutes)): 270 mg/kg
